Assay results published in patent publication US20130217578A1, “Growth inhibition of perennial forage grasses with Pyroxsulam” (Dow AgroSciences LLC, priority 2010, published 2013).

Legend:
Format in all cases: in vivo
[1] = test system: creeping red Fescue (FESRU, Festuca rubra); assay: Field trial: percent growth inhibition of creeping red Fescue
Method: (§1) Trials were conducted under field conditions in Canada. Trial sites were located in perennial forage grass areas. Forage grasses tested included: Bromegrass, Timothy Fescue and Wheatgrass species, including: meadow Bromegrass (BROCO, Bromus commutatus), smooth Brome grass (BROIN, Bromus inermus), Timothy (PHLPR, Phleum pretense), creeping red Fescue (FESRU, Festuca rubra), Tall Fescue (FESAR, Festuca arundinacea), and Western Wheatgrass (AGRSM, Agropyron smithii). The grasses were grown using normal cultural practices for fertilization, seeding, and maintenance to ensure good growth of the grasses. The trials were conducted using normal research methodology. Trial plots were between 2 to 5 meters (m) wide by 5 to 20 m long. All treatments were applied using a randomized complete block trial design with 3 or 4 replications per treatment. The trial sites had populations of homogeneous or heterogeneous perennial forage grass species present. Treatments consisted of pyroxsulam formulations (Simplicity® (trademark of Dow AgroSciences LLC for pyroxsulam+cloquintocet) or water-dispersible formulations of pyroxsulam) alone, or in tank mixes with Milestone® herbicide (trademark of Dow AgroSciences LLC for aminopyralid) or ClearView® herbicide (trademark of Dow AgroSciences LLC for aminopyralid+metsulfuron-methyl) with or without 2,4-D ester applied in water. Adjuvants were applied at 0.2% to 0.5% V/V. The application volumes were between 50 to 200 liters per hectare (L/ha). All application were made using precision gas hand sprayers or calibrated ATV sprayer using a 2 or 5 m boom using flat fan (80° or 110°) nozzles to broadcast the treatments post-emergent on the vegetation or soil.
(§2) The treated plots and control plots were rated blind at various intervals after application. Ratings were based on Percent (%) Visual growth suppression (reduction) from untreated grass, where […] or growth inhibition compared to the untreated grass growth. Quantitative measurements were also taken at various intervals after application, and measured in cm or inches height of leaf blade top height from the ground.

[2] = test system: All grass species combined (CRFescue, Brome Grass, Quackgrass); assay: Field trial: biomass reduction of pyroxsulam-treated vs untreated grass; settings: 30 DAA
Method: Trials were conducted under field conditions in Canada. Trial sites were located in perennial forage grass areas. Forage grasses tested included: Bromegrass, Timothy Fescue and Wheatgrass species, including: meadow Bromegrass (BROCO, Bromus commutatus), smooth Brome grass (BROIN, Bromus inermus), Timothy (PHLPR, Phleum pretense), creeping red Fescue (FESRU, Festuca rubra), Tall Fescue (FESAR, Festuca arundinacea), and Western Wheatgrass (AGRSM, Agropyron smithii). The grasses were grown using normal cultural practices for fertilization, seeding, and maintenance to ensure good growth of the grasses. The trials were conducted using normal research methodology. Trial plots were between 2 to 5 meters (m) wide by 5 to 20 m long. All treatments were applied using a randomized complete block trial design with 3 or 4 replications per treatment. The trial sites had populations of homogeneous or heterogeneous perennial forage grass species present. […]
The treated plots and control plots were rated blind at various intervals after application. […] Quantitative measurements were also taken at various intervals after application, and measured in cm or inches height of leaf blade top height from the ground.

[3] = test system: meadow Bromegrass (BROCO, Bromus commutatus); assay: Field trial: height of meadow Bromegrass after pyroxsulam application; settings: for Height (cm): mean of 3 replicates
Method: as §1, §2

[4] = 15 g ai/ha, 0 days after application
[5] = 15 g ai/ha, 7 days after application
[6] = 15 g ai/ha, 14 days after application
[7] = 15 g ai/ha, 21 days after application
[8] = 15 g ai/ha, 30 days after application
[9] = 15 g ai/ha, 37 days after application
[10] = 15 g ai/ha, 42 days after application
[11] = 15 g ai/ha, 50 days after application
[12] = 15 g ai/ha, 56 days after application
[13] = 15 g ai/ha, 65 days after application
[14] = 15 g ai/ha, 72 days after application
[15] = 30 g ai/ha, 0 days after application
[16] = 30 g ai/ha, 7 days after application
[17] = 30 g ai/ha, 14 days after application
[18] = 30 g ai/ha, 21 days after application
[19] = 30 g ai/ha, 30 days after application
[20] = 30 g ai/ha, 37 days after application
[21] = 30 g ai/ha, 42 days after application
[22] = 30 g ai/ha, 50 days after application
[23] = 30 g ai/ha, 56 days after application
[24] = 30 g ai/ha, 65 days after application
[25] = 30 g ai/ha, 72 days after application

With COc1cc(OC)n2nc(NS(=O)(=O)c3c(C(F)(F)F)ccnc3OC)nc2n1 [Pyroxsulam, N-(5,7-dimethoxy[1,2,4]-triazolo[1,5-α]pyrimidin-2-yl)-2-methoxy-4-(trifluoromethyl)-3-pyridinesulfonamide] the “% Growth Inhibition” value ([1]; 15 g ai/ha, week 1) was 0%, the “% Growth Inhibition” value ([1]; 15 g ai/ha, week 2) was 7% and the “% Growth Inhibition” value ([1]; 15 g ai/ha, week 3) was 35%. The “% Growth Inhibition” value ([1]; 15 g ai/ha, week 4) was 30%, the “% Growth Inhibition” value ([1]; 15 g ai/ha, week 5) was 23% and the “% Growth Inhibition” value ([1]; 15 g ai/ha, week 6) was 21%. The “% Growth Inhibition” value ([1]; 15 g ai/ha, week 7) was 15%, the “% Growth Inhibition” value ([1]; 15 g ai/ha, week 8) was 4% and the “% Growth Inhibition” value ([1]; 15 g ai/ha, week 9) was 8%. For the same molecule, the “% Growth Inhibition” value ([1]; 15 g ai/ha, week 10) was 12%, the “% Growth Inhibition” value ([1]; 30 g ai/ha, week 1) was 0% and the “% Growth Inhibition” value ([1]; 30 g ai/ha, week 2) was 14%. The “% Growth Inhibition” value ([1]; 30 g ai/ha, week 3) was 35%, the “% Growth Inhibition” value ([1]; 30 g ai/ha, week 4) was 32% and the “% Growth Inhibition” value ([1]; 30 g ai/ha, week 5) was 32%. The “% Growth Inhibition” value ([1]; 30 g ai/ha, week 6) was 21%, the “% Growth Inhibition” value ([1]; 30 g ai/ha, week 7) was 19% and the “% Growth Inhibition” value ([1]; 30 g ai/ha, week 8) was 12%. For the same molecule, the “% Growth Inhibition” value ([1]; 30 g ai/ha, week 9) was 4%, the “% Growth Inhibition” value ([1]; 30 g ai/ha, week 10) was 12% and the “Biomass reduction (%)” value ([2]; 15 g/ha) was 40%. The “Biomass reduction (%)” value ([2]; 30 g/ha) was 38%, the “Height (% of Untreated)” value [3, 4] was 100.0% and the “Height (cm)” value [3, 4] was 20 cm. The “Height (% of Untreated)” value [3, 5] was 57.1%, the “Height (cm)” value [3, 5] was 20 cm and the “Height (% of Untreated)” value [3, 6] was 50.0%. For the same molecule, the “Height (cm)” value [3, 6] was 25 cm, the “Height (% of Untreated)” value [3, 7] was 47.6% and the “Height (cm)” value [3, 7] was 30 cm. For the same molecule, the “Height (% of Untreated)” value [3, 8] was 45.0%, the “Height (cm)” value [3, 8] was 27 cm and the “Height (% of Untreated)” value [3, 9] was 43.1%. For the same molecule, the “Height (cm)” value [3, 9] was 28 cm, the “Height (% of Untreated)” value [3, 10] was 45.2% and the “Height (cm)” value [3, 10] was 33 cm. For the same molecule, the “Height (% of Untreated)” value [3, 11] was 53.8%, the “Height (cm)” value [3, 11] was 42 cm and the “Height (% of Untreated)” value [3, 12] was 52.4%. For the same molecule, the “Height (cm)” value [3, 12] was 43 cm, the “Height (% of Untreated)” value [3, 13] was 58.5% and the “Height (cm)” value [3, 13] was 48 cm. The “Height (% of Untreated)” value [3, 14] was 76.8%, the “Height (cm)” value [3, 14] was 63 cm and the “Height (% of Untreated)” value [3, 15] was 100.0%. The “Height (cm)” value [3, 15] was 20 cm, the “Height (% of Untreated)” value [3, 16] was 57.1% and the “Height (cm)” value [3, 16] was 20 cm. The “Height (% of Untreated)” value [3, 17] was 50.0%, the “Height (cm)” value [3, 17] was 25 cm and the “Height (% of Untreated)” value [3, 18] was 44.4%. For the same molecule, the “Height (cm)” value [3, 18] was 28 cm, the “Height (% of Untreated)” value [3, 19] was 41.7% and the “Height (cm)” value [3, 19] was 25 cm. For the same molecule, the “Height (% of Untreated)” value [3, 20] was 38.5%, the “Height (cm)” value [3, 20] was 25 cm and the “Height (% of Untreated)” value [3, 21] was 45.2%. The “Height (cm)” value [3, 21] was 33 cm, the “Height (% of Untreated)” value [3, 22] was 51.3% and the “Height (cm)” value [3, 22] was 40 cm. For the same molecule, the “Height (% of Untreated)” value [3, 23] was 51.2%, the “Height (cm)” value [3, 23] was 42 cm and the “Height (% of Untreated)” value [3, 24] was 52.4%. The “Height (cm)” value [3, 24] was 43 cm, the “Height (% of Untreated)” value [3, 25] was 57.3% and the “Height (cm)” value [3, 25] was 47 cm.
